The values that follow come from patent US11155557B2, “Pyrazolopyrimidine compounds and methods of use thereof” (Genentech, Inc., priority 2016, dated 2021).

Where two headings read alike, the source gives them in different places.

In assay [1] the target is isolated recombinant JAK2 kinase domain (Homo sapiens (Human), UniProt O60674). Kind of assay: JAK2 enzyme assay (Caliper LabChip, Ki). The settings on record: read-out: JAK2 Ki.
Protocol: JAK Enzyme Assays were Carried Out as Follows:
The activity of the isolated recombinant JAK1 and JAK2 kinase domain was measured by monitoring phosphorylation of a peptide derived from JAK3 ([sequence] fluorescently labeled on the N-terminus with 5-carboxyfluorescein) using the Caliper LabChip R technology (Caliper Life Sciences, Hopkinton, Mass.). […] After termination of the kinase reaction, the proportion of phosphorylated product was determined as a fraction of total peptide substrate using the Caliper LabChip R 3000 according to the manufacturer's specifications.
Assay [2] has as its system JAK1-dependent STAT6 phosphorylation in BEAS-2B human bronchial epithelial cells. Nature of the assay: JAK1 pathway assay: IL-13 stimulated STAT6 phosphorylation in BEAS-2B cells. Type of assay: cell-based. The following applies: BEAS-2B cells, IL-13 stimulation, read-out: IL-13 p-STAT6 BEAS-2B IC50. An outline of the steps: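 BEAS-2B bronchial epithelial cells plated one day before, run in complete growth medium. Phospho-STAT6 in lysates measured by MesoScale Discovery; EC50 reported.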

Assay [3] concerns the target isolated recombinant JAK1 kinase domain (Homo sapiens (Human), UniProt P23458). Nature of the assay: JAK1 enzyme assay (Caliper LabChip, Ki). Type of assay: biochemical. On the procedure: The activity of the isolated recombinant JAK1 and JAK2 kinase domain was measured by monitoring phosphorylation of a peptide derived from JAK3 ([…] fluorescently labeled on the N-terminus with 5-carboxyfluorescein) using the Caliper LabChip R technology (Caliper Life Sciences, Hopkinton, Mass.).

isolated recombinant JAK2 kinase domain, sequence (O60674 849-1124): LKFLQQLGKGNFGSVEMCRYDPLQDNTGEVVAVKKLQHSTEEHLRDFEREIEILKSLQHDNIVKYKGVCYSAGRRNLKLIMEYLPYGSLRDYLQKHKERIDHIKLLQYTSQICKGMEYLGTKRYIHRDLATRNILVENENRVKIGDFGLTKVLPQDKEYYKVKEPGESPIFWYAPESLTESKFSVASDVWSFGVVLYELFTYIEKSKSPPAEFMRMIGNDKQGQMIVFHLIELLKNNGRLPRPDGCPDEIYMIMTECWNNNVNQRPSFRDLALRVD
isolated recombinant JAK1 kinase domain, sequence (P23458 875-1153): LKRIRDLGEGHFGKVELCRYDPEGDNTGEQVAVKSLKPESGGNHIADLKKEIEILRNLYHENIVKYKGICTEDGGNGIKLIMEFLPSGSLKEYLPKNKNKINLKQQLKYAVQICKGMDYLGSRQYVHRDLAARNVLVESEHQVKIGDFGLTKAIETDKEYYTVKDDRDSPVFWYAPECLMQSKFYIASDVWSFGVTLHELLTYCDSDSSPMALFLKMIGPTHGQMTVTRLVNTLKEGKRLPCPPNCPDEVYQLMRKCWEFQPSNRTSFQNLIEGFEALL

With `CN(C)CCn1cc(NC(=O)c2cnn3cccnc23)c(-c2cc3c(cc2OC(F)F)NCCS3)n1` [Example 82, N-[3-[6-(difluoromethoxy)-3,4-dihydro-2H-1,4-benzothiazin-7-yl]-1-[2-(dimethylamino)ethyl]pyrazol-4-yl]pyrazolo[1,5-a]pyrimidine-3-carboxamide], the values for the Ki in assay [1] and in assay [3] were 0.16 nM and 0.23 nM, respectively. The IC50 in assay [2] (Homo sapiens, BEAS-2B) is 7 nM.
For `CN(C)CCn1cc(NC(=O)c2cnn3cccnc23)c(-c2cc3c(cc2OC(F)F)NC(=O)CS3)n1` [Example 83, N-[3-[6-(difluoromethoxy)-3-oxo-4H-1,4-benzothiazin-7-yl]-1-[2-(dimethylamino)ethyl]pyrazol-4-yl]pyrazolo[1,5-a]pyrimidine-3-carboxamide], in that order: 0.14 nM, 0.23 nM and 14 nM.
As to `O=C(Nc1cn(C2COC2)nc1-c1cc2c(cc1OC(F)F)NCCO2)c1cnn2cccnc12` [Example 84, N-[3-[6-(difluoromethoxy)-3,4-dihydro-2H-1,4-benzoxazin-7-yl]-1-(oxetan-3-yl)pyrazol-4-yl]pyrazolo[1,5-a]pyrimidine-3-carboxamide], the Ki in assay [1] came to 0.12 nM; in assay [3] it was 0.19 nM. Further, the IC50 in assay [2] (Homo sapiens, BEAS-2B) came to 8 nM.
The like results for `O=C(Nc1cn(CCN2CCOCC2)nc1-c1cc2ccccc2cc1OC(F)F)c1cnn2cccnc12` [Example 85, N-[3-[3-(difluoromethoxy)-2-naphthyl]-1-(2-morpholinoethyl)pyrazol-4-yl]pyrazolo[1,5-a]pyrimidine-3-carboxamide] were, in that order, 1.69 nM, 1.32 nM and 34 nM.
On to `CN1CCC(Cn2cc(NC(=O)c3cnn4cccnc34)c(-c3cc4ccccc4cc3OC(F)F)n2)CC1` [Example 86, N-[3-[3-(difluoromethoxy)-2-naphthyl]-1-[(1-methyl-4-piperidyl)methyl]pyrazol-4-yl]pyrazolo[1,5-a]pyrimidine-3-carboxamide], for which the Ki in assay [1] worked out at 1.02 nM; in assay [3], 1.53 nM. Moreover, the IC50 in assay [2] (Homo sapiens, BEAS-2B) was determined as 31 nM.
In the case of `CCn1cc(NC(=O)c2cnn3cccnc23)c(-c2cc3ccccc3cc2OC(F)F)n1` [Example 87, N-[3-[3-(difluoromethoxy)-2-naphthyl]-1-ethyl-pyrazol-4-yl]pyrazolo[1,5-a]pyrimidine-3-carboxamide], the Ki in assay [1] stood at 0.42 nM; in assay [3], 0.62 nM. For the same compound, the IC50 in assay [2] (Homo sapiens, BEAS-2B) stood at 15 nM.
With `Cn1cc(NC(=O)c2cnn3cccnc23)c(-c2cc3c(cc2OC(F)F)NCCS3)n1` [Example 88, N-[3-[6-(difluoromethoxy)-3,4-dihydro-2H-1,4-benzothiazin-7-yl]-1-methyl-pyrazol-4-yl]pyrazolo[1,5-a]pyrimidine-3-carboxamide], the Ki is 0.1 nM in assay [1] and 0.08 nM in assay [3]. The IC50 in assay [2] (Homo sapiens, BEAS-2B) came out at 5 nM.
For `Cn1cc(NC(=O)c2cnn3cccnc23)c(-c2cc3c(cc2OC(F)F)NCCO3)n1` [Example 89, N-[3-[6-(difluoromethoxy)-3,4-dihydro-2H-1,4-benzoxazin-7-yl]-1-methyl-pyrazol-4-yl]pyrazolo[1,5-a]pyrimidine-3-carboxamide], in that order: 0.1 nM, 0.12 nM and 7 nM.
For `Cn1cc(NC(=O)c2cnn3cccnc23)c(-c2cc3c(cc2OC(F)F)NC(=O)CS3)n1` [Example 90, N-[3-[6-(difluoromethoxy)-3-oxo-4H-1,4-benzothiazin-7-yl]-1-methyl-pyrazol-4-yl]pyrazolo[1,5-a]pyrimidine-3-carboxamide], in that order: 0.07 nM, 0.07 nM and 5 nM.
In the case of `Cn1cc(NC(=O)c2cnn3cccnc23)c(-c2cc3sc(C(=O)N4CCNCC4)cc3cc2OC(F)F)n1` [Example 91, N-[3-[5-(difluoromethoxy)-2-(piperazine-1-carbonyl)benzothiophen-6-yl]-1-methyl-pyrazol-4-yl]pyrazolo[1,5-a]pyrimidine-3-carboxamide], the Ki in assay [1] was 1.85 nM; in assay [3], 4.03 nM. For the same compound, in assay [2] (Homo sapiens, BEAS-2B), the IC50 came to 308 nM.
For `COC(=O)Cn1cc(NC(=O)c2cnn3cccnc23)c(-c2cc3sc(C(N)=O)cc3cc2OC(F)F)n1` [Example 92, methyl 2-[3-[2-carbamoyl-5-(difluoromethoxy)benzothiophen-6-yl]-4-(pyrazolo[1,5-a]pyrimidine-3-carbonylamino)pyrazol-1-yl]acetate], in that order: 0.2 nM, 0.22 nM and 92 nM.
As for `CC1CNc2cc(OC(F)F)c(-c3n[nH]cc3NC(=O)c3cnn4cccnc34)cc2S1` (stereo not drawn) [Example 94, N-[3-[6-(difluoromethoxy)-2-methyl-3,4-dihydro-2H-1,4-benzothiazin-7-yl]-1H-pyrazol-4-yl]pyrazolo[1,5-a]pyrimidine-3-carboxamide], the figures for the Ki in assay [1] and in assay [3] were 0.05 nM and 0.07 nM, respectively. In addition, the IC50 in assay [2] came to 7 nM.
As to `CN(C)C(=O)Cn1cc(NC(=O)c2cnn3cccnc23)c(-c2cc3c(cc2OC(F)F)NCCS3)n1` [Example 99, N-[3-[6-(difluoromethoxy)-3,4-dihydro-2H-1,4-benzothiazin-7-yl]-1-[2-(dimethylamino)-2-oxo-ethyl]pyrazol-4-yl]pyrazolo[1,5-a]pyrimidine-3-carboxamide], the Ki in assay [1] and in assay [3] was 0.12 nM throughout. The IC50 in assay [2] (Homo sapiens, BEAS-2B) came out at 24 nM.
With `CN(C)C(=O)Cn1cc(NC(=O)c2cnn3cccnc23)c(-c2cc3c(cc2OC(F)F)NCCO3)n1` [Example 100, N-[3-[6-(difluoromethoxy)-3,4-dihydro-2H-1,4-benzoxazin-7-yl]-1-[2-(dimethylamino)-2-oxo-ethyl]pyrazol-4-yl]pyrazolo[1,5-a]pyrimidine-3-carboxamide], the Ki in assay [1] worked out at 0.34 nM; in assay [3], 0.18 nM. Also, in assay [2] (Homo sapiens, BEAS-2B), the IC50 came to 39 nM.
For `CN(C)C(=O)Cn1cc(NC(=O)c2cnn3cccnc23)c(-c2cc3c(cc2OC(F)F)CCO3)n1` [Example 109, N-[3-[5-(difluoromethoxy)-2,3-dihydrobenzofuran-6-yl]-1-[2-(dimethylamino)-2-oxo-ethyl]pyrazol-4-yl]pyrazolo[1,5-a]pyrimidine-3-carboxamide], in that order: 0.42 nM, 0.22 nM and 22 nM.
The like results for `CC1(C)CNc2cc(OC(F)F)c(-c3n[nH]cc3NC(=O)c3cnn4cccnc34)cc2S1` [Example 110, N-[3-[6-(difluoromethoxy)-2,2-dimethyl-3,4-dihydro-1,4-benzothiazin-7-yl]-1H-pyrazol-4-yl]pyrazolo[1,5-a]pyrimidine-3-carboxamide] were, in that order, 0.05 nM, 0.08 nM and 10 nM.
Consider `CC1(C)COc2cc(OC(F)F)c(-c3n[nH]cc3NC(=O)c3cnn4cccnc34)cc2C1=O` [Example 115, N-[3-[7-(difluoromethoxy)-3,3-dimethyl-4-oxo-chroman-6-yl]-1H-pyrazol-4-yl]pyrazolo[1,5-a]pyrimidine-3-carboxamide], for which the Ki in assay [1] worked out at 0.36 nM; in assay [3] it was 0.91 nM. Also, the IC50 in assay [2] (Homo sapiens, BEAS-2B) is 55 nM.
The like results for `CNC(=O)Cn1cc(NC(=O)c2cnn3cccnc23)c(-c2cc3c(cc2OC(F)F)NCCO3)n1` [Example 116, N-[3-[6-(difluoromethoxy)-3,4-dihydro-2H-1,4-benzoxazin-7-yl]-1-[2-(methylamino)-2-oxo-ethyl]pyrazol-4-yl]pyrazolo[1,5-a]pyrimidine-3-carboxamide] were, in that order, 0.4 nM, 0.25 nM and 42 nM.
In the case of `CNC(=O)Cn1cc(NC(=O)c2cnn3cccnc23)c(-c2cc3c(cc2OC(F)F)NCCS3)n1` [Example 117, N-[3-[6-(difluoromethoxy)-3,4-dihydro-2H-1,4-benzothiazin-7-yl]-1-[2-(methylamino)-2-oxo-ethyl]pyrazol-4-yl]pyrazolo[1,5-a]pyrimidine-3-carboxamide], the Ki in assay [1] and in assay [3] was 0.1 nM throughout. The IC50 in assay [2] (Homo sapiens, BEAS-2B) stood at 24 nM.
On to `C[C@@H]1CNc2cc(OC(F)F)c(-c3n[nH]cc3NC(=O)c3cnn4cccnc34)cc2O1` [Example 118, N-[3-[(2R)-6-(difluoromethoxy)-2-methyl-3,4-dihydro-2H-1,4-benzoxazin-7-yl]-1H-pyrazol-4-yl]pyrazolo[1,5-a]pyrimidine-3-carboxamide], for which the inhibitory constant (Ki) in assay [1] came out at 0.23 nM; in assay [3], 0.68 nM. For the same compound, the IC50 in assay [2] (Homo sapiens, BEAS-2B) amounted to 37 nM.
For `CNC(=O)Cn1cc(NC(=O)c2cnn3cccnc23)c(-c2cc3c(cc2OC(F)F)SCCO3)n1` [Example 119, N-[3-[6-(difluoromethoxy)-2,3-dihydro-1,4-benzoxathiin-7-yl]-1-[2-(methylamino)-2-oxo-ethyl]pyrazol-4-yl]pyrazolo[1,5-a]pyrimidine-3-carboxamide], in that order: 1.93 nM, 1.01 nM and 40 nM.
For `CN(C)C(=O)Cn1cc(NC(=O)c2cnn3cccnc23)c(-c2cc3c(cc2OC(F)F)SCCO3)n1` [Example 120, N-[3-[6-(difluoromethoxy)-2,3-dihydro-1,4-benzoxathiin-7-yl]-1-[2-(dimethylamino)-2-oxo-ethyl]pyrazol-4-yl]pyrazolo[1,5-a]pyrimidine-3-carboxamide], in that order: 2.54 nM, 0.63 nM and 46 nM.

What is called Ki is a dissociation constant, usually derived from enzyme kinetics or from competition with a known ligand. In general, IC50 refers to the concentration that gives 50% inhibition.
